Laboratory results as given in article PMC7897990, “TriTOX: A novel Trichomonas vaginalis assay platform for high-throughput screening of compound libraries” (International Journal for Parasitology: Drugs and Drug …, 2021).
Where two headings read alike, the source gives them in different places. Positions of bridges follow the written chain, without caps; N, C: chain ends. Non-standard residues stand in square brackets, D forms with d. Residues, ends and D or L forms follow the SMILES beside them. *: point of attachment. Ileψ(thiazoline)Cys = CC[C@H](C)[C@H](N)C1=N[C@H](C(=O)*)CS1; dOrn = NCCC[C@@H](N)C(=O)O

How the values were obtained:
[1] = test system: Trichomonas vaginalis G3 trophozoites; settings: for T.vaginalis_%inb_Rep1: replicate 1; for T.vaginalis_%inb_Rep2: replicate 2
[2] = test system: nontumorigenic neonatal foreskin fibroblast (NFF) cell line
[3] = HTS single concentration, parasite screen 1 µg/mL
[4] = NFF_NS1 screen 5 µg/mL, single concentration

| Structure (SMILES) | T.vaginalis_%inb_Rep1 [1, 3] [%] | T.vaginalis_%inb_Rep2 [1, 3] [%] | NFF_Activity [2, 4] | T.vaginalis_%inb_Rep1 ([1]; parasite screen at 1 µg/mL) [%] | T.vaginalis_%inb_Rep2 ([1]; parasite screen at 1 µg/mL) [%] | NFF_Activity ([2]; NFF cells, screen at 5 µg/mL) |
| --- | --- | --- | --- | --- | --- | --- |
| CN1C(=O)c2ccccc2-n2c(nc3ccccc3c2=O)C1Cc1ccccc1 (stereo not drawn) [BIA-B1647] | 16.42 | 13.38 | I (otherwise these were reported as inactive (I)) | – | – | – |
| C[C@@H](O)[C@H]1C(=O)N2C(C(=O)[O-])=C(SC3Cn4cnc[n+]4C3)[C@H](C)[C@H]12 (stereo partly drawn) [BIA-B1663] | 15.29 | 20.32 | I (otherwise these were reported as inactive (I)) | – | – | – |
| CN1C(=O)c2ccccc2-n2c(nc3ccccc3c2=O)C12OC2c1ccccc1 (stereo not drawn) [BIA-B1679] | 16.96 | 15.26 | I (otherwise these were reported as inactive (I)) | – | – | – |
| C=C(C)[C@@H]1CC[C@]2(C(=O)O)CC[C@]3(C)[C@H](CC[C@@H]4[C@@]5(C)CC[C@H](O)C(C)(C)[C@@H]5CC[C@]43C)[C@@H]12 [BIA-B1758] | 14.81 | 7.30 | I (otherwise these were reported as inactive (I)) | – | – | – |
| CC[C@H](C)[C@H](N)C1=N[C@H](C(=O)N[C@@H](CC(C)C)C(=O)N[C@H](CCC(=O)O)C(=O)N[C@H](C(=O)N[C@H]2CCCCNC(=O)[C@H](CC(N)=O)NC(=O)[C@@H](CC(=O)O)NC(=O)[C@H](Cc3cnc[nH]3)NC(=O)[C@@H](Cc3ccccc3)NC(=O)[C@H]([C@@H](C)CC)NC(=O)[C@@H](CCCN)NC2=O)[C@@H](C)CC)CS1 [BIA-B1784] ({Ileψ(thiazoline)Cys}-L[dE]IK[dOrn]I[dF]H[dD]N; lactam 4-C) | 15.89 | 9.69 | I (otherwise these were reported as inactive (I)) | – | – | – |
| C[C@H]1CCC/C=C/C(=O)c2c(O)cc(O)cc2CC(=O)O1 [BIA-D1399] | 13.95 | 13.67 | A (active (A) compounds having >25% inhibitory activity) | – | – | – |
| O=C(O)c1nccc2c1[nH]c1ccccc12 [BIA-F1943] | 8.34 | 10.54 | I (otherwise these were reported as inactive (I)) | – | – | – |
| COC1C=CC=C(C)C(=O)NC2=CC(=O)C=C(C2=O)C(OC)C(C)CC(OC)C(OC)C(C)C=C(C)C1OC(N)=O (stereo not drawn) [BIA-H1036] | – | – | – | 12.63 | 12.64 | I (otherwise these were reported as inactive (I)) |
| CCCCCC(=O)N[C@H]1CCOC1=O [BIA-H1495] | – | – | – | 10.40 | 12.70 | I (otherwise these were reported as inactive (I)) |
| CCCCCCCCCCCCCCCC(=O)N[C@H]1CCOC1=O [BIA-H1500] | – | – | – | 13.84 | 11.55 | I (otherwise these were reported as inactive (I)) |
| Oc1cccc2nc3ccccc3nc12 [BIA-H1520] | – | – | – | 9.69 | 12.89 | I (otherwise these were reported as inactive (I)) |
| Cc1cc(O)c(O)c2oc(=O)c3c(O)cc(O)cc3c12 [BIA-H1558] | – | – | – | 10.09 | 9.24 | I (otherwise these were reported as inactive (I)) |
| COc1c(O)c(C)c(C)c(O)c1OC [BIA-H1651] | – | – | – | 13.69 | 12.19 | A (active (A) compounds having >25% inhibitory activity) |
| Cc1cc(O)cc(=O)o1 [BIA-H1736] | – | – | – | 11.05 | 13.86 | I (otherwise these were reported as inactive (I)) |
| C[C@@H]1OC(=O)[C@H]2C[C@H]3CCCC[C@@H]3[C@@H](/C=C/[C@H]3CCC[C@H](C)N3C)[C@@H]12 [BIA-H1744] | – | – | – | 12.98 | 14.75 | I (otherwise these were reported as inactive (I)) |
| COc1ccc([C@@H]2CC(=O)c3c(O)cc(O[C@@H]4O[C@H](CO[C@@H]5O[C@@H](C)[C@H](O)[C@@H](O)[C@H]5O)[C@@H](O)[C@H](O)[C@H]4O)cc3O2)cc1O [BIA-H1766] | – | – | – | 15.42 | 4.23 | I (otherwise these were reported as inactive (I)) |
| CN1CCC2(c3cccc4c3NC3N(C)CCC43C34CCN(C)C3Nc3ccccc34)c3ccccc3NC12 (stereo not drawn) [BIA-H1941] | – | – | – | 7.39 | 6.28 | A (active (A) compounds having >25% inhibitory activity) |
| C[N+]1(C)CCC2(c3cccc4c3NC3C4(C45CC[N+](C)(C)C4Nc4ccccc45)CC[N+]3(C)C)c3ccccc3NC21.[I-].[I-].[I-] (stereo not drawn) [BIA-H1942] | – | – | – | 9.49 | 13.53 | I (otherwise these were reported as inactive (I)) |

| Structure (SMILES) | T.vaginalis_%inb_Rep1 [1, 3] [%] | T.vaginalis_%inb_Rep2 [1, 3] [%] | NFF_Activity [2, 4] | T.vaginalis_%inb_Rep1 ([1]; parasite screen at 1 µg/mL) [%] | T.vaginalis_%inb_Rep2 ([1]; parasite screen at 1 µg/mL) [%] | NFF_Activity ([2]; NFF cells, screen at 5 µg/mL) |
| --- | --- | --- | --- | --- | --- | --- |
| CN1CCC2(c3cccc4c3NC3N(C)CCC43C34CCN(C)C3Nc3ccccc34)c3ccccc3NC12 (stereo not drawn) [BIA-H1948] | – | – | – | 8.81 | 5.36 | A (active (A) compounds having >25% inhibitory activity) |
| COc1ccc2c(c1OC)C(=O)O[C@@H]2[C@H]1c2cc3c(cc2CCN1C)OCO3 [BIA-H1954] | – | – | – | 11.27 | 6.40 | I (otherwise these were reported as inactive (I)) |
| O=C1CCCC2C3CC(CN12)C1CC(O)CCN1C3 (stereo not drawn) [BIA-H1961] | – | – | – | 9.18 | 14.99 | I (otherwise these were reported as inactive (I)) |
| CN=C1NC(=O)[C@H]([C@H](C)c2c[nH]c3ccccc23)O1 [BIA-I1040] | – | – | – | 25.76 | 5.58 | I (otherwise these were reported as inactive (I)) |
| CO[C@H]1C[C@H](O[C@H]2[C@H](C)O[C@@H](O[C@@H]3/C(C)=C/C[C@@H]4C[C@@H](C[C@]5(CC[C@H](C)[C@@H](C(C)C)O5)O4)OC(=O)[C@@H]4C=C(C)[C@@H](O)[C@H]5OC/C(=C\C=C\[C@@H]3C)[C@]54O)C[C@@H]2OC)O[C@@H](C)[C@@H]1O [BIA-I1117] | – | – | – | 14.71 | 14.82 | I (otherwise these were reported as inactive (I)) |
| CC[C@H](C)[C@H]1O[C@]2(CC[C@@H]1C)C[C@@H]1C[C@@H](C/C=C(\C)[C@@H](O[C@H]3C[C@H](OC)[C@@H](O[C@H]4C[C@H](OC)[C@@H](O)[C@H](C)O4)[C@H](C)O3)[C@@H](C)/C=C/C=C3\CO[C@@H]4[C@H](O)C(C)=C[C@@H](C(=O)O1)[C@]34O)O2 [BIA-I1119] | – | – | – | 13.79 | 12.96 | I (otherwise these were reported as inactive (I)) |
| CC[C@H](C)[C@H]1O[C@]2(CC[C@@H]1C)C[C@@H]1C[C@@H](C/C=C(\C)[C@@H](O[C@H]3C[C@H](OC)[C@@H](O)[C@H](C)O3)[C@@H](C)/C=C/C=C3\CO[C@@H]4[C@H](O)C(C)=C[C@@H](C(=O)O1)[C@]34O)O2 [BIA-I1150] | – | – | – | 15.62 | 12.38 | I (otherwise these were reported as inactive (I)) |
| CC[C@H](C)[C@H]1O[C@]2(CC[C@@H]1C)C[C@@H]1C[C@@H](C/C=C(\C)[C@@H](O)[C@@H](C)/C=C/C=C3\CO[C@@H]4[C@H](O)C(C)=C[C@@H](C(=O)O1)[C@]34O)O2 [BIA-I1151] | – | – | – | 12.98 | 12.38 | I (otherwise these were reported as inactive (I)) |
| CC[C@H](C)[C@H]1O[C@]2(CC[C@@H]1C)C[C@@H]1C[C@@H](C/C=C(\C)[C@@H](O[C@H]3C[C@H](OC)[C@@H](O[C@H]4C[C@H](OC)[C@@H](O)[C@H](C)O4)[C@H](C)O3)[C@@H](C)/C=C/C=C3\CO[C@@H]4[C@H](O)C(C)C=C(C(=O)O1)[C@]34O)O2 (stereo partly drawn) [BIA-I1581] | – | – | – | 13.44 | 13.34 | I (otherwise these were reported as inactive (I)) |
| CN(C)C1C(=O)C(C(N)=O)=C(O)C2(O)C(=O)CC(C3(C)OC(=O)c4c(O)ccc(Cl)c43)CC12 (stereo not drawn) [BIA-I1656] | – | – | – | 15.87 | 12.89 | I (otherwise these were reported as inactive (I)) |
| COC(=O)C1=CO[C@@H](C)[C@@H]2CN3CCc4c([nH]c5cc(OC)c(OC)cc45)[C@@H]3C[C@H]12 [BIA-I1957] | – | – | – | 9.33 | 14.44 | I (otherwise these were reported as inactive (I)) |
| O=C1C=CC(=O)c2c(O)cccc21 [BIA-J1739] | – | – | – | 12.73 | 10.78 | A (active (A) compounds having >25% inhibitory activity) |
| COC(=O)C1(O)CC2OC1(C)n1c3ccccc3c3c4c(c5c6ccccc6n2c5c31)C(=O)NC4 (stereo not drawn) [BIA-K1225] | – | – | – | 61.16 | 66.84 | A (active (A) compounds having >25% inhibitory activity) |
| COc1cc(C)c2c(OC)cc(=O)oc2c1-c1c(OC)cc(C)c2c(OC)cc(=O)oc12 [BIA-K1634] | – | – | – | 14.30 | 13.02 | I (otherwise these were reported as inactive (I)) |
| O=c1cc(CO)occ1O [BIA-K1696] | – | – | – | 13.34 | 13.98 | I (otherwise these were reported as inactive (I)) |
| Cc1c2ccocc-2oc1=O [BIA-K1791] | – | – | – | 12.47 | 13.47 | I (otherwise these were reported as inactive (I)) |
| O=c1cc2ccocc-2o1 [BIA-K1792] | – | – | – | 12.93 | 13.15 | I (otherwise these were reported as inactive (I)) |
| CC(C=CC1OC(=O)C=CC1C)=CC(C)CC=CC(C)=CC(C)C(=O)C(C)C(O)C(C)CC(C)=CC(=O)O (stereo not drawn) [BIA-L1045] | – | – | – | 3.96 | 1.86 | A (active (A) compounds having >25% inhibitory activity) |
